Where two headings read alike, the source gives them in different places.

The subject of series [1] is constitutive ERK phosphorylation in HCT-116 cells. Nature of the series: HCT-116 AlphaLISA SureFire pERK1/2 cellular assay. The class given is cell-based, human. The note with it: HCT116 cells, 2 hr; for IC50: Homo sapiens, HCT-116, read-out: pERK HCT116 (2 hr) Abs pIC50 (converted). On the procedure: HCT-116 AlphaLISA SureFire pERK1/2 Cellular Assay […] […] Assay read outs took place 2 or 24 hours after dosing with compounds. On the first day, HCT-116 cells were harvested, resuspended in growth medium (McCoys5A with Glutamax (Life Technologies 36600021) and 10% heat-inactivated fetal bovine serum (Sigma F9665)), and counted. Cells were plated in 100 μl per well in each well of a 96-well culture dish (Sigma CLS3598) to a final density of 30,000 (2 hr read) or 15,000 (24 hr read) cells per well and incubated over night at 37° C. and 5% CO2. On day 2, the growth medium was exchanged for dosing medium (McCoys5A with Glutamax (Life Technologies 36600021) and 1% heat-inactivated fetal bovine serum (Sigma F9665)) and the cells were dosed with compounds to produce a 10-point dose response, where the top concentration was 1 μM and subsequent concentrations were at 1/3 log dilution intervals. A matched DMSO control was included. The cells were subsequently incubated for either 2 or 24 hours at 37° C. and 5% CO2. After incubation, media was removed and the cells were incubated with lysis buffer containing phosphatase inhibitors for 15 minutes at room temperature. Cell lysates were transferred to a 12 area 96 well white Optiplate™ (Perkin Elmer 6005569) and incubated with anti-mouse IgG acceptor beads, a biotinylated anti-ERK1/2 rabbit antibody recognizing both phosphorylated and non-phosphorylated ERK1/2, a mouse antibody targeted to the Thr202/Tyr204 epitope and recognizing phosphorylated ERK proteins only, and streptavidin-coated donor beads. The biotinylated antibody binds to the streptavidin-coated donor beads and the phopsho-ERK1/2 antibody binds to the acceptor beads. […] Both antibodies bound to phosphorylated ERK proteins, bringing the donor and acceptor beads into close proximity. All data were analyzed using the Dotmatics or GraphPad Prism software packages. Inhibition of ERK phosphorylation was assessed by determination of the absolute IC50 value, which is defined as the concentration of compound required to decrease the level of phosphorylated ERK proteins by 50% when compared to DMSO control.
In general terms: In Alpha technology, singlet oxygen from a donor bead excites a nearby acceptor bead.

The subject of series [2] is RAF dimers in HCT-116 cells. Nature of the series: HCT-116 AlphaLISA SureFire pERK1/2 cellular assay (dimer). The class given is cell-based. The note with it: Homo sapiens, HCT-116, 1 hr. The procedure, abridged: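 HCT-116 (KRAS G13D) cells, 30,000/well, pretreated 1 h with 1 μM Encorafenib to induce RAF dimers, washed, then dosed 1 h at 37° C with compound (10-point, top 10 μM, 1/2 log steps) in growth medium. pERK1/2 (T202/Y204) measured by AlphaLISA SureFire; absolute IC50 versus DMSO control.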

Series [3] is described as follows: Plasma protein binding assay, human plasma (hPPB). The note with it: 5 μM. The class given is in vitro ADME. The procedure, abridged:
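Equilibrium dialysis of 5 μM compound in previously frozen human or mouse plasma against phosphate buffer, 4 h at 37 °C. Both chambers quantified by LC-MS/MS; % free = (1−((PC−PF)/PC))×100.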

Where [4] appears, read: HCT116 cells pre-dosed with 1 μM Encorafenib, read-out: pERK HCT116 dimer (1 hr) pIC50 (converted).
Setting [5] is: equilibrium dialysis 4 hours 37° C.
Setting [6] is: HCT116 cells, dimer, read-out: pERK HCT116 dimer (1 hr) plC50 (converted).
[7] abbreviates: equilibrium dialysis 4 hours at 37° C.

For the molecule `O=C1CCc2c(Oc3ccc4c(c3)CC(c3nc5cc(C(F)(F)F)ncc5[nH]3)CO4)ccnc2N1` (racemic) [Compound 32], the results for the IC50 in series [1] (absolute IC50) and in series [2] (setting [4]) were 229 nM and 398 nM, respectively. For the same molecule, the “hPPB (% free)” value in series [3] (setting [5]) amounted to 1.3 % free.

`O=C(Nc1cc(Oc2ccc3c(c2)CC(c2nc(-c4ccccc4)c[nH]2)CO3)ccn1)C1CC1` (racemic) [Compound 136]: the IC50 in series [1] (Abs) is 27.5 nM; in series [2] (setting [6]), 89.1 nM. In series [3] (setting [7]), the “hPPB (% free)” value worked out at 0.2 % free.

As for `O=C1CCc2c(Oc3ccc4c(c3)CC(c3nc(-c5ccnc(C(F)(F)F)c5)c[nH]3)CO4)ccnc2N1` (centres unmarked) [Compound 8, 5-[3-[4-[2-(trifluoromethyl)-4-pyridyl]-1H-imidazol-2-yl]chroman-6-yl]oxy-3,4-dihydro-1H-1,8-naphthyridin-2-one], the “pERK HCT116 (2 hr) Abs pIC50” value in series [1] (Abs) is 6.76. The IC50 in series [1] (absolute IC50) was 174 nM; in series [2] (setting [4]), 269 nM; in series [2] (setting [6]) it was 269 nM. For the same molecule, the “hPPB (% free)” value in series [3] (setting [5]) and in series [3] (setting [7]) was 1.0 % free throughout.

With `O=C1CCc2c(Oc3ccc4c(c3)CC(c3nc(-c5cccc(C(F)(F)F)c5)c[nH]3)CO4)ccnc2N1` (centres unmarked) [Compound 12, 5-[3-[4-[3-(trifluoromethyl)phenyl]-1H-imidazol-2-yl]chroman-6-yl]oxy-3,4-dihydro-1H-1,8-naphthyridin-2-one], the IC50 is 257 nM in series [1] (absolute IC50) and 229 nM in series [2] (setting [4]). Besides, in series [3] (setting [5]), the “hPPB (% free)” value was less than 0.1 % free.

As to `COc1cc(-c2c[nH]c(C3COc4ccc(Oc5ccnc6c5CCC(=O)N6)cc4C3)n2)ccn1` (centres unmarked) [Compound 19, 5-[3-[4-(2-methoxy-4-pyridyl)-1H-imidazol-2-yl]chroman-6-yl]oxy-3,4-dihydro-1H-1,8-naphthyridin-2-one], the IC50 was 316 nM in series [1] (absolute IC50) and 347 nM in series [2] (setting [4]). The “hPPB (% free)” value in series [3] (setting [5]) is given as 1.9 % free.

Consider `O=C1CCc2c(Oc3ccc4c(c3)CC(c3nc5cc(C(F)(F)F)ccc5[nH]3)CO4)ccnc2N1` (centres unmarked) [Compound 22, 5-[3-[6-(trifluoromethyl)-1H-benzimidazol-2-yl]chroman-6-yl]oxy-3,4-dihydro-1H-1,8-naphthyridin-2-one], for which the IC50 was 141 nM in series [1] (absolute IC50) and 155 nM in series [2] (setting [4]). Moreover, the “hPPB (% free)” value in series [3] (setting [5]) is less than 0.1 % free.

As for `O=C1CCc2c(Oc3ccc4c(c3)CC(c3nc5cc(F)c(F)cc5[nH]3)CO4)ccnc2N1` (centres unmarked) [Compound 23], the IC50 in series [1] (absolute IC50) is 316 nM; in series [2] (setting [4]), 224 nM. The “hPPB (% free)” value in series [3] (setting [5]) is on record as 0.5 % free.

As to `N#Cc1ccc2[nH]c(C3COc4ccc(Oc5ccnc6c5CCC(=O)N6)cc4C3)nc2c1` (centres unmarked) [Compound 24], the values for the IC50 in series [1] (absolute IC50) and in series [2] (setting [4]) were 407 nM and 155 nM, respectively. Besides, the “hPPB (% free)” value in series [3] (setting [5]) is 1.8 % free.

`O=C1CCc2c(Oc3ccc4c(c3)CC(c3nc5cc(Cl)ccc5[nH]3)CO4)ccnc2N1` (centres unmarked) [Compound 25]: the IC50 was 85.1 nM in series [1] (absolute IC50) and 115 nM in series [2] (setting [4]). The “hPPB (% free)” value in series [3] (setting [5]) was determined as 0.3 % free.

In the case of `CN(C)c1ccc2[nH]c(C3COc4ccc(Oc5ccnc6c5CCC(=O)N6)cc4C3)nc2c1` (centres unmarked) [Compound 26], the IC50 in series [1] (absolute IC50) is 417 nM; in series [2] (setting [4]), 275 nM. The “hPPB (% free)” value in series [3] (setting [5]) was 0.7 % free.

Turning to `Cc1cc2nc(C3COc4ccc(Oc5ccnc6c5CCC(=O)N6)cc4C3)[nH]c2cc1C` (centres unmarked) [Compound 29], the values for the IC50 in series [1] (absolute IC50) and in series [2] (setting [4]) were 132 nM and 219 nM, respectively. Also, the “hPPB (% free)” value in series [3] (setting [5]) is on record as 0.2 % free.

Consider `Cn1nc(C2CC2)cc1-c1c[nH]c(C2COc3ccc(Oc4ccnc5c4CCC(=O)N5)cc3C2)n1` (centres unmarked) [Compound 125, 5-[3-[4-(5-cyclopropyl-2-methyl-pyrazol-3-yl)-1H-imidazol-2-yl]chroman-6-yl]oxy-3,4-dihydro-1H-1,8-naphthyridin-2-one], for which the IC50 in series [1] (Abs) is 355 nM; in series [2] (setting [6]), 138 nM.

(Values after patent US12304912B2, “Fused bicyclic RAF inhibitors and methods for use thereof” (Jazz Pharmaceuticals Ireland Limited, priority 2020, dated 2025).)
